Values after ≈ are worked out from the molar mass of the structure shown.
Legend:
[1] = target: T1, Long-chain-fatty-acid--AMP ligase FadD32 (Mycobacterium tuberculosis (strain ATCC 25618 / H37Rv)) (UniProt O53580); test: Inhibition of Mycobacterium tuberculosis H37Rv FadD32 assessed as reduction in bacterial viability after 6 days by resazurin dye based fluorescence assay
T1 sequence (whole entry): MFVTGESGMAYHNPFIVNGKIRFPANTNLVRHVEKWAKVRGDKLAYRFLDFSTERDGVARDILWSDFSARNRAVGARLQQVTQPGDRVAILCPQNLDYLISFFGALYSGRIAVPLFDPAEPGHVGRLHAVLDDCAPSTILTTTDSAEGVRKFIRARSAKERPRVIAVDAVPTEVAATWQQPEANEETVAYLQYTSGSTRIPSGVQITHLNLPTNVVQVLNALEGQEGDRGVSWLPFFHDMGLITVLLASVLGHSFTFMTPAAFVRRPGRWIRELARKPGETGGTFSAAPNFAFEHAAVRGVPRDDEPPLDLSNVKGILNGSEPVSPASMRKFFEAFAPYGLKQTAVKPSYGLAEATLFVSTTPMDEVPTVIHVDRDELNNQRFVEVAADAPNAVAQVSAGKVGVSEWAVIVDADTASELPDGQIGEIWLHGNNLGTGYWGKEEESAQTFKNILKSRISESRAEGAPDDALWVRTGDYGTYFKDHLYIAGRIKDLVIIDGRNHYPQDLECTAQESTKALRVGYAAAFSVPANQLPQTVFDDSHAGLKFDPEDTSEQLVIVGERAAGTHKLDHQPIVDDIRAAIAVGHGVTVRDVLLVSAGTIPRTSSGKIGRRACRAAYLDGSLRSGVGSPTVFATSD

[2] = Kinetic solubility of the compound at pH 7.4 by chemiluminescence nitrogen detection method; type: physicochemical; conditions: buffer, read-out: Kinetic_solubility
[3] = Metabolic stability in mouse liver microsomes at 1 uM after 60 mins by UPLC-MS/MS analysis; type: ADME, microsome; conditions: for remaining at 1 h, 1 µM: liver microsomes, read-out: Stability
[4] = Metabolic stability in human liver microsomes at 1 uM after 60 mins by UPLC-MS/MS analysis; type: ADME, microsome; conditions: for remaining at 1 h, 1 µM: liver microsomes, read-out: Stability
[5] = tested on: HepG2; test: Cytotoxicity against human HepG2 cells after 48 hrs by CellTiter-Glo assay; type: cell-based; conditions: HepG2, 48 h
[6] = Protein binding in mouse plasma a 5 uM after 5 hrs by UPLC-MS based rapid equilibrium dialysis method; type: ADME, cell-free
[7] = Protein binding in human plasma a 5 uM after 5 hrs by UPLC-MS based rapid equilibrium dialysis method; type: ADME, cell-free
[8] = Plasma clearance in mouse at 1 mg/kg, iv; type: ADME, organism-based
[9] = tested on: Mycobacterium tuberculosis; test: Antimycobacterial activity against Mycobacterium tuberculosis; type: functional
[10] = tested on: Mycobacterium tuberculosis; test: Antimycobacterial activity against Mycobacterium tuberculosis H37Rv infected in C57BL/6J mouse assessed as log reduction in bacterial load in lungs up to 50 mg/kg, po qd via gavage up to day 8 post infection starting from day 1 post infection measured on day 9; type: functional
[11] = tested on: Mycobacterium tuberculosis; test: Antimycobacterial activity against Mycobacterium tuberculosis H37Rv infected in C57BL/6J mouse assessed as reduction in bacterial load in lungs administered po qd via gavage up to day 8 post infection starting from day 1 post infection measured on day 9; type: functional, organism-based
[12] = tested on: Mycobacterium tuberculosis; test: Antimycobacterial activity against Mycobacterium tuberculosis H37Rv infected in C57BL/6J mouse assessed as 2 log reduction in bacterial load in lungs administered po qd via gavage up to day 8 post infection starting from day 1 post infection measured on day 9; type: functional
[13] = tested on: Mus musculus; test: Toxicity in C57BL/6J mouse infected with Mycobacterium tuberculosis H37Rv assessed as mortality up to 50 mg/kg, po qd via gavage up to day 8 post infection starting from day 1 post infection measured daily; type: organism-based; conditions: in vivo
[14] = Drug level treated with 4-(4-fluorophenyl)-5,7-dimethyl-6-(4-(morpholinomethyl)phenyl)-2H-chromen-2-one under basic condition after 18 hrs at room temperature in presence of morpholine; type: physicochemical

| SMILES | MIC90 [1] [µM] | solubility kinetic [2] [µM] | also measured |
| --- | --- | --- | --- |
| Cc1cc2nccc(-c3ccccc3C(N)=O)c2c(C)c1-c1ccc(CN2CCOCC2)cc1 | 20 (≈ 9.03 µg/mL) |  |  |
| Cc1cc2nc(C(=O)NCCN(C)C)cc(-c3ccccc3Cl)c2c(C)c1-c1ccncc1 | 0.3 (≈ 0.138 µg/mL) | 263 (≈ 121 µg/mL) | remaining at 1 h, 1 µM [3]: 24%; remaining at 1 h, 1 µM [4]: 3.2%; IC50 [5]: 16 µM |
| Cc1cc2nccc(-c3ccc(Cl)cc3)c2c(C)c1-c1ccc(CN2CCOCC2)cc1 | > 80 |  |  |
| Cc1cc2nc(C(C)(C)O)cc(-c3ccccc3Cl)c2c(C)c1-c1ccncc1 | > 40 | 38 (≈ 15.3 µg/mL) |  |
| COc1ccncc1-c1ccnc2cc(C)c(-c3ccc(CN4CCOCC4)cc3)c(C)c12 | 2.5 (≈ 1.1 µg/mL) | 169 (≈ 74.3 µg/mL) |  |
| Cc1cc2nc(C(=O)O)cc(-c3ccccc3Cl)c2c(C)c1-c1ccncc1 | 80 (≈ 31.1 µg/mL) | 226 (≈ 87.9 µg/mL) |  |
| Cc1cc2nccc(-c3cncnc3)c2c(C)c1-c1ccc(CN2CCOCC2)cc1 | 2.5 (≈ 1.03 µg/mL) | > 230 | PPB [6]: 92.8%; PPB [7]: 95.2%; Stability ([3]; microsomes, 1 h, 1 µM): < 5%; Stability ([4]; microsomes, 1 h, 1 µM): 11.6%; clearance [8]: 65.1 mL/min/kg |
| Cc1cc2[nH]c(=O)cc(-c3ccccc3)c2c(C)c1-c1ccc(CN2CCOCC2)cc1 | > 40 |  |  |
| Cc1cc2oc(=O)cc(-c3ccccc3)c2c(C)c1-c1ccc(CN2CCOCC2)cc1 |  |  | MIC90 [9]: 0.24 to 5.6 µM (≈ 0.102 to 2.38 µg/mL) |
| COc1ncccc1-c1ccnc2cc(C)c(-c3ccc(CN4CCOCC4)cc3)c(C)c12 | 2.5 (≈ 1.1 µg/mL) | 1 (≈ 0.44 µg/mL) |  |
| Cc1cc2nc(C(=O)NCCF)cc(-c3ccccc3Cl)c2c(C)c1-c1ccncc1 | 1.25 (≈ 0.542 µg/mL) | 5 (≈ 2.17 µg/mL) |  |
| Cc1cc2nc(C(=O)NCCO)cc(-c3ccccc3Cl)c2c(C)c1-c1ccncc1 | 0.3 (≈ 0.13 µg/mL) | 25 (≈ 10.8 µg/mL) | remaining at 1 h, 1 µM [3]: 26.2%; remaining at 1 h, 1 µM [4]: 8%; IC50 [5]: 100 µM |
| Cc1cc2oc(=O)cc(-c3cccc(N)c3)c2c(C)c1-c1ccc(CN2CCOCC2)cc1 |  |  | MIC90 [9]: 0.24 to 5.6 µM (≈ 0.106 to 2.47 µg/mL) |
| COc1cccc(-c2ccnc3cc(C)c(-c4ccc(CN5CCOCC5)cc4)c(C)c23)c1Cl | 10 (≈ 4.73 µg/mL) | 2 (≈ 0.946 µg/mL) |  |
| Cc1cc2nccc(-c3ccnn3C)c2c(C)c1-c1ccc(CN2CCOCC2)cc1 | 2.5 (≈ 1.03 µg/mL) | 243 (≈ 100 µg/mL) |  |
| Cc1cc2nc(C(=O)N3CCNCC3)cc(-c3ccccc3Cl)c2c(C)c1-c1ccncc1 | 10 (≈ 4.57 µg/mL) |  |  |
| Cc1cc2nccc(-c3ccccc3Cl)c2c(C)c1-c1ccncc1 | 5 (≈ 1.72 µg/mL) | 21 (≈ 7.24 µg/mL) |  |
| CCc1ccccc1CNc1ccnc2cc(C)c(-c3ccc(CN4CCOCC4)cc3)c(C)c12 | 2.5 (≈ 1.16 µg/mL) | 59 (≈ 27.5 µg/mL) |  |

| SMILES | MIC90 [1] [µM] | solubility kinetic [2] [µM] | also measured |
| --- | --- | --- | --- |
| Cc1cccc(C)c1-c1ccnc2cc(C)c(-c3ccc(CN4CCOCC4)cc3)c(C)c12 | 5 (≈ 2.18 µg/mL) |  |  |
| Cc1cc2nc(CO)cc(-c3ccccc3Cl)c2c(C)c1-c1ccncc1 | 3.75 (≈ 1.41 µg/mL) | 32 (≈ 12 µg/mL) |  |
| Cc1cc2nccc(-c3ccccc3C(=O)O)c2c(C)c1-c1ccc(CN2CCOCC2)cc1 | 40 (≈ 18.1 µg/mL) | 222 (≈ 100 µg/mL) |  |
| CNC(=O)c1cc(-c2ccccc2Cl)c2c(C)c(-c3ccncc3)c(C)cc2n1 | 0.8 (≈ 0.322 µg/mL) | 15 (≈ 6.03 µg/mL) | remaining at 1 h, 1 µM [3]: 19.1%; remaining at 1 h, 1 µM [4]: 19.4%; IC50 [5]: 60 µM; Activity [10]: 4 deltalog10CFU; Activity [11]: Dose-dependent effect; ED99 [12]: 7.8 mg/kg; Activity [13]: Non-Toxic |
| Cc1cc2nc(C(N)=O)cc(-c3ccccc3Cl)c2c(C)c1-c1ccncc1 | 1.25 (≈ 0.485 µg/mL) | 8 (≈ 3.1 µg/mL) |  |
| Cc1cc2occ(-c3ccccc3)c2c(C)c1-c1ccc(CN2CCOCC2)cc1 | 2.5 (≈ 0.994 µg/mL) |  |  |
| Cc1cc2nc(C(=O)N3CCCC3)cc(-c3ccccc3Cl)c2c(C)c1-c1ccncc1 | 5 (≈ 2.21 µg/mL) | 41 (≈ 18.1 µg/mL) |  |
| Cc1cc2nccc(-c3ccccc3)c2c(C)c1-c1ccc(CN2CCOCC2)cc1 | 0.45 (≈ 0.184 µg/mL) |  |  |
| Cc1cc2nccc(-c3cccc(Cl)c3)c2c(C)c1-c1ccc(CN2CCOCC2)cc1 | 1.5 (≈ 0.664 µg/mL) | 1 (≈ 0.443 µg/mL) |  |
| Cc1cc2nc(C(=O)NC(C)C)cc(-c3ccccc3Cl)c2c(C)c1-c1ccncc1 | 2.5 (≈ 1.07 µg/mL) | 4 (≈ 1.72 µg/mL) |  |
| Cc1cc2nccc(-c3ccccc3C#N)c2c(C)c1-c1ccc(CN2CCOCC2)cc1 | 2.5 (≈ 1.08 µg/mL) | 24 (≈ 10.4 µg/mL) |  |
| Cc1cc2nc(C(=O)N3CCOCC3)cc(-c3ccccc3Cl)c2c(C)c1-c1ccncc1 | 15 (≈ 6.87 µg/mL) | 145 (≈ 66.4 µg/mL) |  |
| CCOC(=O)c1cc(-c2ccccc2Cl)c2c(C)c(-c3ccncc3)c(C)cc2n1 | 10 (≈ 4.17 µg/mL) | 9 (≈ 3.75 µg/mL) |  |
| Cc1cc2nccc(-c3cccnc3)c2c(C)c1-c1ccc(CN2CCOCC2)cc1 | 5 (≈ 2.05 µg/mL) | 209 (≈ 85.6 µg/mL) |  |
| Cc1cc2oc(=O)cc(-c3ccccc3)c2c(C)c1-c1ccncc1 |  |  | MIC90 [9]: 0.24 to 5.6 µM (≈ 0.0786 to 1.83 µg/mL) |
| Cc1cc(O)c(/C(=C\C(=O)N2CCOCC2)c2ccc(F)cc2)c(C)c1-c1ccc(CN2CCOCC2)cc1 |  |  | Drug metabolism [14]: Metabolite_Detected |
| Cc1cc2nccc(-c3ccccc3Cl)c2c(C)c1-c1ccc(CN2CCOCC2)cc1 | 0.3 (≈ 0.133 µg/mL) |  |  |
| Cc1cc2nc(C(=O)N(C)C)cc(-c3ccccc3Cl)c2c(C)c1-c1ccncc1 | 20 (≈ 8.32 µg/mL) | 157 (≈ 65.3 µg/mL) |  |

— ChEMBL document CHEMBL4261616, “Discovery of heterocyclic replacements for the coumarin core of anti-tubercular FadD32 inhibitors” (Bioorg Med Chem Lett, 2018)
